Test results taken from paper PMC5218480 (PLoS ONE, 2017).

Test system: MV-4-11 cells
Experiment: Gene expression microarray analysis (Affymetrix PrimeView) and GSEA
Format: cell-based, human
Design: RFU PODN (11730768_x_at) / Fold change /veh PODN (11730768_x_at) / RFU LINC00158 (11744669_a_at) / Fold change /veh LINC00158 (11744669_a_at) / RFU DUSP10 (11751237_a_at) / Fold change /veh DUSP10 (11751237_a_at) / RFU ID3 (11757404_x_at) / Fold change /veh ID3 (11757404_x_at) / RFU PLEKHG5 (11737974_s_at) / Fold change /veh PLEKHG5 (11737974_s_at) / RFU LRRC4B (11730491_at) / Fold change /veh LRRC4B (11730491_at) / RFU GIMAP4 (11747438_a_at) / Fold change /veh GIMAP4 (11747438_a_at) / RFU KRT8 (11758183_x_at) / Fold change /veh KRT8 (11758183_x_at) / RFU CNN1 (11734310_a_at) / Fold change /veh CNN1 (11734310_a_at) / RFU VPS37D (11726825_at) / Fold change /veh VPS37D (11726825_at) / RFU C10orf10 (11716522_x_at) / Fold change /veh C10orf10 (11716522_x_at) / RFU KIR2DL2 /// KIR2DL4 /// KIR2DL5A /// KIR2DL5B /// KIR2DS1 /// KIR2DS2 /// KIR2DS3 /// KIR2DS4 /// KIR3DL3 /// KIR3DL3 /// KIR3DS1 (11738374_at) / Fold change /veh KIR2DL2 /// KIR2DL4 /// KIR2DL5A /// KIR2DL5B /// KIR2DS1 /// KIR2DS2 /// KIR2DS3 /// KIR2DS4 /// KIR3DL3 /// KIR3DL3 /// KIR3DS1 (11738374_at) / RFU C1QL1 (11718748_at) / Fold change /veh C1QL1 (11718748_at) / RFU TMPRSS4 (11747572_a_at) / Fold change /veh TMPRSS4 (11747572_a_at) / RFU HAMP (11756126_x_at) / Fold change /veh HAMP (11756126_x_at) / RFU RNFT2 (11725882_a_at) / Fold change /veh RNFT2 (11725882_a_at) / RFU NR4A2 (11747474_a_at) / Fold change /veh NR4A2 (11747474_a_at) / RFU ABCC12 (11746883_a_at) / Fold change /veh ABCC12 (11746883_a_at) / RFU TMEM136 (11760407_x_at) / Fold change /veh TMEM136 (11760407_x_at) / RFU CLDN22 /// WWC2 (11732394_at) / Fold change /veh CLDN22 /// WWC2 (11732394_at) / RFU HLA-DPB1 (11760878_x_at) / Fold change /veh HLA-DPB1 (11760878_x_at) / RFU SPINT1 (11716480_a_at) / Fold change /veh SPINT1 (11716480_a_at) / RFU GAP43 (11754022_s_at) / Fold change /veh GAP43 (11754022_s_at) / RFU A4GNT (11735810_at) / Fold change /veh A4GNT (11735810_at) / RFU PRB3 (11715151_x_at) / Fold change /veh PRB3 (11715151_x_at) / RFU TUBB4B (11761932_at) / Fold change /veh TUBB4B (11761932_at) / RFU CAPN14 (11732068_a_at) / Fold change /veh CAPN14 (11732068_a_at) / RFU TMCC2 (11721928_a_at) / Fold change /veh TMCC2 (11721928_a_at) / RFU IRGQ (11745062_a_at) / Fold change /veh IRGQ (11745062_a_at) / RFU FAM174B (11720279_a_at) / Fold change /veh FAM174B (11720279_a_at) / RFU TMPRSS4 (11748680_a_at) / Fold change /veh TMPRSS4 (11748680_a_at) / RFU FAM212B (11763350_a_at) / Fold change /veh FAM212B (11763350_a_at) / RFU PLEKHG5 (11743358_a_at) / Fold change /veh PLEKHG5 (11743358_a_at) / RFU ZSCAN30 (11745921_a_at) / Fold change /veh ZSCAN30 (11745921_a_at) / RFU CMKLR1 (11741424_a_at) / Fold change /veh CMKLR1 (11741424_a_at) / RFU LOC101060620 /// MAPK8IP1 (11723275_at) / Fold change /veh LOC101060620 /// MAPK8IP1 (11723275_at) / RFU SPTSSB (11747773_x_at) / Fold change /veh SPTSSB (11747773_x_at) / RFU PRSS12 (11739890_at) / Fold change /veh PRSS12 (11739890_at) / RFU BIN1 (11741810_x_at) / Fold change /veh BIN1 (11741810_x_at) / RFU WNT11 (11732464_a_at) / Fold change /veh WNT11 (11732464_a_at) / RFU C10orf10 (11716521_a_at) / Fold change /veh C10orf10 (11716521_a_at) / RFU C5orf56 (11738089_at) / Fold change /veh C5orf56 (11738089_at) / RFU CYB561 (11721691_x_at) / Fold change /veh CYB561 (11721691_x_at) / RFU ANKRD19P (11752326_a_at) / Fold change /veh ANKRD19P (11752326_a_at) / RFU OR2T12 /// OR2T33 /// OR2T8 (11738714_s_at) / Fold change /veh OR2T12 /// OR2T33 /// OR2T8 (11738714_s_at) / RFU VCAN (11748164_a_at) / Fold change /veh VCAN (11748164_a_at) / RFU JSRP1 (11732532_at) / Fold change /veh JSRP1 (11732532_at) / RFU KRTAP10-11 (11738290_x_at) / Fold change /veh KRTAP10-11 (11738290_x_at) / RFU MYO3A (11730013_a_at) / Fold change /veh MYO3A (11730013_a_at) / RFU EBF3 (11725865_a_at) / Fold change /veh EBF3 (11725865_a_at) / RFU CAMK2N1 (11719241_x_at) / Fold change /veh CAMK2N1 (11719241_x_at) / RFU C5orf56 (11738088_a_at) / Fold change /veh C5orf56 (11738088_a_at) / RFU OLFML3 (11715873_a_at) / Fold change /veh OLFML3 (11715873_a_at) / RFU LOC100653217 /// NTM (11731650_a_at) / Fold change /veh LOC100653217 /// NTM (11731650_a_at) / RFU MAPK11 (11762145_a_at) / Fold change /veh MAPK11 (11762145_a_at) / RFU FIZ1 (11724087_x_at) / Fold change /veh FIZ1 (11724087_x_at) / RFU OASL (11726364_x_at) / Fold change /veh OASL (11726364_x_at) / RFU SOX15 (11748057_x_at) / Fold change /veh SOX15 (11748057_x_at) / RFU CD79A (11719716_a_at) / Fold change /veh CD79A (11719716_a_at) / RFU HIST1H1D (11736915_at) / Fold change /veh HIST1H1D (11736915_at) / RFU CASKIN2 (11723855_a_at) / Fold change /veh CASKIN2 (11723855_a_at) / RFU LOC730098 (11760151_x_at) / Fold change /veh LOC730098 (11760151_x_at) / RFU OR4N2 (11742367_at) / Fold change /veh OR4N2 (11742367_at) / RFU PRRT2 (11749266_a_at) / Fold change /veh PRRT2 (11749266_a_at) / RFU SNX32 (11753110_a_at) / Fold change /veh SNX32 (11753110_a_at) / RFU CDHR5 (11726645_a_at) / Fold change /veh CDHR5 (11726645_a_at) / RFU RCAN1 (11760418_a_at) / Fold change /veh RCAN1 (11760418_a_at) / RFU FAM167A (11723789_a_at) / Fold change /veh FAM167A (11723789_a_at) / RFU FAM26E (11764081_at) / Fold change /veh FAM26E (11764081_at) / RFU ISYNA1 (11749810_s_at) / Fold change /veh ISYNA1 (11749810_s_at) / RFU ACY1 (11761880_at) / Fold change /veh ACY1 (11761880_at) / RFU 11764098_at / Fold change /veh 11764098_at / RFU SAMD14 (11745864_x_at) / Fold change /veh SAMD14 (11745864_x_at) / RFU NPB (11741838_a_at) / Fold change /veh NPB (11741838_a_at) / RFU TMPRSS6 (11731388_a_at) / Fold change /veh TMPRSS6 (11731388_a_at) / RFU KRTAP10-2 (11738614_at) / Fold change /veh KRTAP10-2 (11738614_at) / RFU ARHGAP8 /// PRR5-ARHGAP8 (11727945_x_at) / Fold change /veh ARHGAP8 /// PRR5-ARHGAP8 (11727945_x_at) / RFU KRTAP5-7 /// NADSYN1 (11734609_at) / Fold change /veh KRTAP5-7 /// NADSYN1 (11734609_at) / RFU RASL12 (11751679_a_at) / Fold change /veh RASL12 (11751679_a_at) / RFU CDKN2B (11736163_a_at) / Fold change /veh CDKN2B (11736163_a_at) / RFU PRF1 (11729649_at) / Fold change /veh PRF1 (11729649_at) / RFU, ZNF638 /// ZNF638-IT1 / Fold change vs veh, ZNF638 /// ZNF638-IT1 / RFU, PANK3 / Fold change vs veh, PANK3 / RFU, SH3YL1 / Fold change vs veh, SH3YL1 / RFU, ZEB2 / Fold change vs veh, ZEB2 / RFU, NRIP1 / Fold change vs veh, NRIP1 / RFU, PTTG1IP / Fold change vs veh, PTTG1IP / RFU, CAPN2 / Fold change vs veh, CAPN2 / RFU, MED14 / Fold change vs veh, MED14 / RFU, SNORA58 / Fold change vs veh, SNORA58 / RFU, C1orf63 / Fold change vs veh, C1orf63 / RFU, LRRFIP1 / Fold change vs veh, LRRFIP1 / RFU, NDUFAF7 / Fold change vs veh, NDUFAF7 / RFU, SLC12A2 / Fold change vs veh, SLC12A2 / RFU, IBTK / Fold change vs veh, IBTK / RFU, ESF1 / Fold change vs veh, ESF1 / Fold change vs veh, TMEM50B / RFU, TAOK1 / Fold change vs veh, TAOK1 / RFU, ACBD3 / Fold change vs veh, ACBD3 / RFU, TMA16 / Fold change vs veh, TMA16 / RFU, RWDD3 / Fold change vs veh, RWDD3 / RFU, BCAT1 / Fold change vs veh, BCAT1 / RFU, EDEM3 / Fold change vs veh, EDEM3 / RFU, TMEM33 / Fold change vs veh, TMEM33 / RFU, WDR75 / Fold change vs veh, WDR75 / RFU, AHCTF1 / Fold change vs veh, AHCTF1 / RFU, TFRC / Fold change vs veh, TFRC / RFU, ZDHHC17 / Fold change vs veh, ZDHHC17 / RFU, NOM1 / Fold change vs veh, NOM1 / RFU, ARL8B / Fold change vs veh, ARL8B / RFU, ZBTB11 / Fold change vs veh, ZBTB11 / RFU, TAMM41 / Fold change vs veh, TAMM41 / RFU, KIAA1704 /// LOC100996395 / Fold change vs veh, KIAA1704 /// LOC100996395 / RFU, ING1 / Fold change vs veh, ING1 / RFU, TRMT61B / Fold change vs veh, TRMT61B / RFU, FUBP3 / Fold change vs veh, FUBP3 / RFU, TP53 / Fold change vs veh, TP53 / RFU, TNKS2 / Fold change vs veh, TNKS2 / RFU, ZFP14 / Fold change vs veh, ZFP14 / RFU, ACTR2 / Fold change vs veh, ACTR2 / RFU, PPP3R1 / Fold change vs veh, PPP3R1 / RFU, PIK3R1 / Fold change vs veh, PIK3R1 / RFU, HNRNPA1 / Fold change vs veh, HNRNPA1 / RFU, RNF170 / Fold change vs veh, RNF170 / RFU, ZNF28 / Fold change vs veh, ZNF28 / RFU, RNGTT / Fold change vs veh, RNGTT / RFU, OGT / Fold change vs veh, OGT / RFU, BRD1 / Fold change vs veh, BRD1 / RFU, MARS / Fold change vs veh, MARS / RFU, ZNF655 / Fold change vs veh, ZNF655 / RFU, FAHD1 / Fold change vs veh, FAHD1 / RFU, BDP1 / Fold change vs veh, BDP1 / RFU, LRRCC1 / Fold change vs veh, LRRCC1 / RFU, ARID1A / Fold change vs veh, ARID1A / RFU, ZNF146 / Fold change vs veh, ZNF146 / RFU, ZNF330 / Fold change vs veh, ZNF330 / RFU, GPN3 / Fold change vs veh, GPN3 / RFU, C9orf123 / Fold change vs veh, C9orf123 / RFU, N4BP2L2 / Fold change vs veh, N4BP2L2 / RFU, ARFIP1 / Fold change vs veh, ARFIP1 / RFU, FAM179B / Fold change vs veh, FAM179B / RFU, BCL10 / Fold change vs veh, BCL10 / RFU, UHRF1BP1L / Fold change vs veh, UHRF1BP1L / RFU, BET1 / Fold change vs veh, BET1 / RFU, CNOT2 / Fold change vs veh, CNOT2 / RFU, ZNF268 / Fold change vs veh, ZNF268 / Fold change vs veh, ZNF507 / RFU, DGCR2 / Fold change vs veh, DGCR2 / RFU, WDSUB1 / Fold change vs veh, WDSUB1 / Fold change vs veh, HSP90B1 /// MIR3652 / RFU, ADSS / Fold change vs veh, ADSS / RFU, GK / Fold change vs veh, GK / RFU, ZNF148 / Fold change vs veh, ZNF148 / RFU, TAF9 / Fold change vs veh, TAF9 / RFU, SLC1A5 / Fold change vs veh, SLC1A5 / RFU, SLMO2 / Fold change vs veh, SLMO2 / RFU, ABCC4 / Fold change vs veh, ABCC4 / RFU, LOC101060439 /// RAP1B / Fold change vs veh, LOC101060439 /// RAP1B / RFU, RFX7 / Fold change vs veh, RFX7 / RFU, GTPBP10 / Fold change vs veh, GTPBP10 / RFU, CNEP1R1 / Fold change vs veh, CNEP1R1 / RFU, BIVM-ERCC5 /// ERCC5 / Fold change vs veh, BIVM-ERCC5 /// ERCC5 / RFU, ILF3 / Fold change vs veh, ILF3 / RFU 11762660_at / Fold change /veh 11762660_at / RFU VCAN (11757783_s_at) / Fold change /veh VCAN (11757783_s_at) / RFU DDX43 (11728927_at) / Fold change /veh DDX43 (11728927_at) / RFU KRT8 (11758188_x_at) / Fold change /veh KRT8 (11758188_x_at) / RFU NKD1 (11759106_at) / Fold change /veh NKD1 (11759106_at) / RFU SRD5A1 (11742802_a_at) / Fold change /veh SRD5A1 (11742802_a_at) / RFU TPSAB1 /// TPSB2 (11721975_s_at) / Fold change /veh TPSAB1 /// TPSB2 (11721975_s_at) / RFU GSTM3 (11746129_a_at) / Fold change /veh GSTM3 (11746129_a_at) / RFU IL23R (11737362_x_at) / Fold change /veh IL23R (11737362_x_at) / RFU TMEM51 (11727254_a_at) / Fold change /veh TMEM51 (11727254_a_at) / RFU PIWIL2 (11732686_x_at) / Fold change /veh PIWIL2 (11732686_x_at) / RFU ORM1 (11744905_x_at) / Fold change /veh ORM1 (11744905_x_at) / RFU CCDC152 (11743942_at) / Fold change /veh CCDC152 (11743942_at) / RFU ECM1 (11717891_a_at) / Fold change /veh ECM1 (11717891_a_at) / RFU IL23R (11748794_a_at) / Fold change /veh IL23R (11748794_a_at) / RFU TNFAIP8L3 (11732012_x_at) / Fold change /veh TNFAIP8L3 (11732012_x_at) / RFU MBOAT4 (11741988_at) / Fold change /veh MBOAT4 (11741988_at) / RFU 11764193_at / Fold change /veh 11764193_at / RFU TMEM53 (11763286_at) / Fold change /veh TMEM53 (11763286_at) / RFU MAGEB2 (11727129_at) / Fold change /veh MAGEB2 (11727129_at) / RFU TMEM200A (11744735_a_at) / Fold change /veh TMEM200A (11744735_a_at) / RFU CCDC152 (11751479_a_at) / Fold change /veh CCDC152 (11751479_a_at) / RFU FAM211A (11726209_a_at) / Fold change /veh FAM211A (11726209_a_at) / RFU RGS16 (11746705_a_at) / Fold change /veh RGS16 (11746705_a_at) / RFU VCAN (11755009_s_at) / Fold change /veh VCAN (11755009_s_at) / RFU RHOB (11743442_s_at) / Fold change /veh RHOB (11743442_s_at) / RFU RGS16 (11720943_a_at) / Fold change /veh RGS16 (11720943_a_at) / RFU RGS16 (11720944_at) / Fold change /veh RGS16 (11720944_at) / RFU, VPS4B / Fold change vs veh, VPS4B / RFU, CREB1 / Fold change vs veh, CREB1 / RFU, DNAJC13 / Fold change vs veh, DNAJC13 / RFU, GNAQ / Fold change vs veh, GNAQ / RFU, CDK5R1 / Fold change vs veh, CDK5R1 / RFU, ZRANB3 / Fold change vs veh, ZRANB3 / RFU, CUL4A / Fold change vs veh, CUL4A / RFU, CCNY / Fold change vs veh, CCNY / RFU, UFL1 / Fold change vs veh, UFL1 / RFU, COG3 / Fold change vs veh, COG3 / RFU, DIAPH2 / Fold change vs veh, DIAPH2 / RFU, SKA2 / Fold change vs veh, SKA2 / RFU, AFF3 / Fold change vs veh, AFF3 / RFU, LMF1 / Fold change vs veh, LMF1 / RFU, IPO11 / Fold change vs veh, IPO11 / RFU, DFFB / Fold change vs veh, DFFB / RFU, FOXP1 / Fold change vs veh, FOXP1 / RFU, CARD8 / Fold change vs veh, CARD8 / RFU, STRN3 / Fold change vs veh, STRN3 / RFU, ADK / Fold change vs veh, ADK / RFU, RASSF2 / Fold change vs veh, RASSF2 / RFU, WIPF1 / Fold change vs veh, WIPF1 / RFU, LARP1B / Fold change vs veh, LARP1B / RFU, RASA1 / Fold change vs veh, RASA1 / RFU, RB1 / Fold change vs veh, RB1 / RFU, PPFIA1 / Fold change vs veh, PPFIA1 / RFU, MAT2A / Fold change vs veh, MAT2A / RFU, CCT5 / Fold change vs veh, CCT5 / RFU, WDR92 / Fold change vs veh, WDR92 / RFU, CUX1 / Fold change vs veh, CUX1 / RFU, TTC7A / Fold change vs veh, TTC7A / RFU, TMEM135 / Fold change vs veh, TMEM135 / RFU, DEPTOR / Fold change vs veh, DEPTOR / RFU, CPM / Fold change vs veh, CPM / RFU, DNAJB6 / Fold change vs veh, DNAJB6 / RFU, CACNA2D3 / Fold change vs veh, CACNA2D3 / RFU, DTX4 / Fold change vs veh, DTX4 / RFU, TFCP2 / Fold change vs veh, TFCP2 / RFU, GMCL1 /// GMCL1P1 / Fold change vs veh, GMCL1 /// GMCL1P1 / RFU, AEBP2 / Fold change vs veh, AEBP2 / RFU, SNHG1 /// SNORD22 /// SNORD25 /// SNORD26 /// SNORD27 /// SNORD28 /// SNORD29 /// SNORD31 / Fold change vs veh, SNHG1 /// SNORD22 /// SNORD25 /// SNORD26 /// SNORD27 /// SNORD28 /// SNORD29 /// SNORD31 / Fold change (Aza/veh), C12orf56 (ProbeSet 11735607_a_at) / Fold change (ACY-1035/veh), C12orf56 (ProbeSet 11735607_a_at) / Fold change (Aza/veh), FGFR1OP (ProbeSet 11751329_s_at) / Fold change (ACY-1035/veh), FGFR1OP (ProbeSet 11751329_s_at) / Fold change (Aza/veh), VPS36 (ProbeSet 11739960_a_at) / Fold change (ACY-1035/veh), VPS36 (ProbeSet 11739960_a_at) / RFU SYPL1 (11715823_x_at) / Fold change /veh SYPL1 (11715823_x_at) / RFU IGFBP7 (11715501_s_at) / Fold change /veh IGFBP7 (11715501_s_at) / RFU REEP3 (11722064_at) / Fold change /veh REEP3 (11722064_at) / RFU IGLL1 (11728026_x_at) / Fold change /veh IGLL1 (11728026_x_at): dose or concentration left out as unconfirmed
Settings: MV-4-11 cells, 48 hours

SMILES: Nc1ccc(-c2cccs2)cc1NC(=O)c1ccc2c(c1)cc(C1CC1)n2CCN1CCOCC1 [ACY-1035]
- RFU ANKRD19P (11752326_a_at): 5.89 RFU
